Drawing on patent US8022206B2 (OSI Pharmaceuticals, LLC, priority 2008, dated 2011), this text covers IC50 for 26 compounds.

SMILES strings stand for the structures.

For one assay, the target named is RON (human) (Homo sapiens, UniProt Q04912). Description: RON (human) AlphaScreen kinase assay, Km of ATP. Conditions: AlphaScreen, Km of ATP; read-out: RON biochemical IC50. Type of assay: biochemical. Put shortly:
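Reaction was started with enzyme and run 30 min at RT. PT66 donor/acceptor beads in an EDTA-containing Tris pH 7.5 buffer were then added, and the signal was read after 1 h.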

The next assay has as its target MET (human) (Homo sapiens, UniProt P08581). Nature of the assay: MET (human) AlphaScreen kinase assay, Km of ATP. Type of assay: biochemical. Conditions: AlphaScreen, Km of ATP; read-out: Met biochemical IC50. In short, it runs like this:
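Human MET at lot-optimised concentration in 50 mM Tris pH 7.4 buffer with 1 mM DTT, compound at 1% DMSO final; enzyme starts the reaction, 60 min at RT.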

MET (human), sequence (P08581 25-1390): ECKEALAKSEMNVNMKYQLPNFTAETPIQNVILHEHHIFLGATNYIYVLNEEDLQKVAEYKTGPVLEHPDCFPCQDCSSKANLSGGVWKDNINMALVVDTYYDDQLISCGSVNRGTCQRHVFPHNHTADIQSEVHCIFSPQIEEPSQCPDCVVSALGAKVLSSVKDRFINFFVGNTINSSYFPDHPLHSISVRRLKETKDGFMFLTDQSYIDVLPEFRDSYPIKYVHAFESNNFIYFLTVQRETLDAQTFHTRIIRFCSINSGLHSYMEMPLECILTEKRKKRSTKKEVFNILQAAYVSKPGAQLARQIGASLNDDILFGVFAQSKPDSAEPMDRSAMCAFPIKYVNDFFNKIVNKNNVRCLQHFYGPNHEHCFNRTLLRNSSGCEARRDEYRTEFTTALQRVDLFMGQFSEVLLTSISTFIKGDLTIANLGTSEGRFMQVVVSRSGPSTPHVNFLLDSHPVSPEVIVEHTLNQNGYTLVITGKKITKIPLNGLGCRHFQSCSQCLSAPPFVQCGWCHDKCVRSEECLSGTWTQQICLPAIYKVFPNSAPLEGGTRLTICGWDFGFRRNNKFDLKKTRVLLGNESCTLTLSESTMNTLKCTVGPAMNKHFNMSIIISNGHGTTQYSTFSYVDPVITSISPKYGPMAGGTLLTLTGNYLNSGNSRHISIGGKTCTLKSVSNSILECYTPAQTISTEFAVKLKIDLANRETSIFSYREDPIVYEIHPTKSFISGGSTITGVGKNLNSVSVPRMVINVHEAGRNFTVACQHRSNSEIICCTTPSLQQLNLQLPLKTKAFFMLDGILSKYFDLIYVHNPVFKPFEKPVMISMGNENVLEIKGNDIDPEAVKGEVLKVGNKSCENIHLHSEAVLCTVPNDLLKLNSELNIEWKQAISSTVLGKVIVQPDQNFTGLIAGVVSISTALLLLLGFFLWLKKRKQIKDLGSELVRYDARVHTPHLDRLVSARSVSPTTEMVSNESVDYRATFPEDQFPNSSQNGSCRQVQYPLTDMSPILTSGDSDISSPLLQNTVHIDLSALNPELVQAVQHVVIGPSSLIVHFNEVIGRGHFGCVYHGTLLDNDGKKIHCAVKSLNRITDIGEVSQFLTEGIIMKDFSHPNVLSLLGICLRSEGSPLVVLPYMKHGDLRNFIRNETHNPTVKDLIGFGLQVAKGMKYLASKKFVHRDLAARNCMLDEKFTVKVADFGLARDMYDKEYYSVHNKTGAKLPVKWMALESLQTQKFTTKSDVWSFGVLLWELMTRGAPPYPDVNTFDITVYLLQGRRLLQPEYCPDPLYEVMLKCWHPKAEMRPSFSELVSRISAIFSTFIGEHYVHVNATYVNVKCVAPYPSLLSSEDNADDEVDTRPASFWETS
RON (human), sequence (Q04912 25-1400): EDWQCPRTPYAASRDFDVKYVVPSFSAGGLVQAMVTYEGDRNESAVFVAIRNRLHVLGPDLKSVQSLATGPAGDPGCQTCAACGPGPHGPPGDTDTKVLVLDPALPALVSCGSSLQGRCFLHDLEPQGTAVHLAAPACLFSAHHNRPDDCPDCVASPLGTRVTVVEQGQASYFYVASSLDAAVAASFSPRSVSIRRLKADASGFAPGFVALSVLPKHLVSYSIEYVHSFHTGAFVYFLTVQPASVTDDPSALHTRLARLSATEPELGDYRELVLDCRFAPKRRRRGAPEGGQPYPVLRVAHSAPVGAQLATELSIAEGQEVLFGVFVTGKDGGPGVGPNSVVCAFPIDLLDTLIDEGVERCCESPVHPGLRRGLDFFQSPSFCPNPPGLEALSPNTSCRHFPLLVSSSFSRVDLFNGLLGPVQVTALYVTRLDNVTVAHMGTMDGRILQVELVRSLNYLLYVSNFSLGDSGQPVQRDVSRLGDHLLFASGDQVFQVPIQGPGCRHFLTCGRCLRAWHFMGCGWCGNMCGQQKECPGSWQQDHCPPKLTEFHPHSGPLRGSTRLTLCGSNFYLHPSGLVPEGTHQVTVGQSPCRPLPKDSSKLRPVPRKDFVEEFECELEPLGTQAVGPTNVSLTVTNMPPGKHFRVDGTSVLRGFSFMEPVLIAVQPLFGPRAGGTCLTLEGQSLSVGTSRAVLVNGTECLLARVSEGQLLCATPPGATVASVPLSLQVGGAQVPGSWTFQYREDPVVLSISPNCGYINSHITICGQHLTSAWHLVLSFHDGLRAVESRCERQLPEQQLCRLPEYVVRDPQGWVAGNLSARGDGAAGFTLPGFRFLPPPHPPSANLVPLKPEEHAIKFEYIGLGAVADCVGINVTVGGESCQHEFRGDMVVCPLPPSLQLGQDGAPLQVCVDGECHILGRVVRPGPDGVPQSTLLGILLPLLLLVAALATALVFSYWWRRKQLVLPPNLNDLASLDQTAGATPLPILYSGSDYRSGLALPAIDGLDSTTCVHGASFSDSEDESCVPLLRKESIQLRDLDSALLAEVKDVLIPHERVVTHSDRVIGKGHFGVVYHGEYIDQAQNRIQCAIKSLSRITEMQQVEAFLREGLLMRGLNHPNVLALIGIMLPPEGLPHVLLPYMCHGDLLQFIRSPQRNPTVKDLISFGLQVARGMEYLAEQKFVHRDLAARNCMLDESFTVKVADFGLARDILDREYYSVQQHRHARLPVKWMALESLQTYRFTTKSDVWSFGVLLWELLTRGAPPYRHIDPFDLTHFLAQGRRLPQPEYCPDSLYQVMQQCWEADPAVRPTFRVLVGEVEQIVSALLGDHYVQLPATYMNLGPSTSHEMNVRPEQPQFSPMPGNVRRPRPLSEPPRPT

On to `Cn1c(Cc2ccccc2)ncc(-c2ccc(COc3c(N)ncc4ccoc34)c(F)c2)c1=O` [Example 468, 5-[4-(6-Aminofuro[3,2-c]pyridin-7-yloxymethyl)-3-fluorophenyl]-2-benzyl-3-methyl-3H-pyrimidin-4-one], for which the IC50 at RON (human) and on MET (human) was 5000 to 20000 nM throughout.

Consider `C[C@@H](Oc1c(N)ncc2c(-c3ccc(C(=O)N(C)C)s3)coc12)c1c(Cl)ccc(F)c1Cl` [Example 208, 5-{6-Amino-7-[(R)-1-(2,6-dichloro-3-fluorophenyl)ethoxy]-furo[3,2-c]pyridin-3-yl}-thiophene-2-carboxylic acid dimethyl amide], for which the IC50 on RON (human) and on MET (human) was 500 to 5000 nM throughout.

Take `C[C@@H](Oc1c(N)ncc2c(C3=CCN(C(=O)[C@H]4CCCN4)CC3)coc12)c1c(Cl)ccc(F)c1Cl` [Example 242, (4-{6-Amino-7-[(R)-1-(2,6-dichloro-3-fluorophenyl)ethoxy]-furo[3,2-c]pyridin-3-yl}-3,6-dihydro-2H-pyridin-1-yl)-(R)-pyrrolidin-2-ylmethanone]: the IC50 at RON (human) and on MET (human) was less than 500 nM in each case.

For the compound `C[C@@H](Oc1c(N)ncc2c(-c3ccc(CO)cc3)coc12)c1c(Cl)ccc(F)c1Cl` [Example 64, (4-{6-Amino-7-[(R)-1-(2,6-dichloro-3-fluorophenyl)ethoxy]-furo[3,2-c]pyridin-3-yl}-phenyl)methanol], the IC50 on RON (human) and on MET (human) was 500 to 5000 nM each time.

Consider `C[C@@H](Oc1c(N)ncc2c(-c3ccc(C(=O)NCCN4CCCCC4)cc3)coc12)c1c(Cl)ccc(F)c1Cl` [Example 103, 4-{6-Amino-7-[(R)-1-(2,6-dichloro-3-fluorophenyl)ethoxy]furo[3,2-c]pyridin-3-yl}-N-(2-piperidin-1-ylethyl)benzamide], for which the figures for the IC50 on RON (human) and at MET (human) were 500 to 5000 nM and less than 500 nM, respectively.

With `C[C@@H](Oc1c(N)ncc2c(-c3ccc(NCCN4CCOCC4)nc3)coc12)c1c(Cl)ccc(F)c1Cl` [Example 104, 7-[(R)-1-(2,6-Dichloro-3-fluorophenyl)ethoxy]-3-[6-(2-morpholin-4-yl-ethylamino)pyridin-3-yl]furo[3,2-c]pyridin-6-ylamine], the IC50 at RON (human) is 500 to 5000 nM; on MET (human) it was less than 500 nM.

Consider `C[C@H](Oc1c(N)ncc2c(-c3cnn(C4CCNCC4)c3)coc12)c1nnc2ccc(-c3ccccc3)nn12` [Example 478, 7-[(1S)-1-(6-phenyl[1,2,4]triazolo[4,3-b]pyridazin-3-yl)ethoxy]-3-[1-(piperidin-4-yl)-1H-pyrazol-4-yl]furo[3,2-c]pyridin-6-amine], for which the IC50 on RON (human) is more than 20000 nM; at MET (human), 500 to 5000 nM.

For the compound `C[C@@H](Oc1c(N)ncc2c(C3=CCN(C(=O)[C@@H](O)c4ccccc4)CC3)coc12)c1c(Cl)ccc(F)c1Cl` [Example 265, (2S)-1-[4-{6-Amino-7-[(1R)-1-(2,6-dichloro-3-fluorophenyl)ethoxy]furo[3,2-c]pyridin-3-yl}-3,6-dihydropyridin-1(2H)-yl]-2-hydroxy-2-phenylethanone], the values for the IC50 at RON (human) and at MET (human) were less than 500 nM and 500 to 5000 nM, respectively.

Turning to `Nc1ncc2c(-c3cnn(C4CCNCC4)c3)coc2c1O[C@@H](c1ccccc1)C(F)(F)F` [Example 391, 3-(1-Piperidin-4-yl-1H-pyrazol-4-yl)-7-((S)-2,2,2-trifluoro-1-phenylethoxy)furo[3,2-c]pyridin-6-ylamine], the IC50 is 500 to 5000 nM at RON (human) and less than 500 nM at MET (human).

With `CC(Oc1c(N)ncc2c(-c3cnn(C4CCNCC4)c3)coc12)c1c(Cl)cccc1C(F)(F)F` (stereo not shown) [Example 365, 7-[1-(2-Chloro-6-trifluoromethylphenyl)ethoxy]-3-(1-piperidin-4-yl-1H-pyrazol-4-yl)furo[3,2-c]pyridin-6-ylamine], the IC50 at RON (human) is 500 to 5000 nM; at MET (human), less than 500 nM.

Take `COCCCNC(=O)c1coc2c(O[C@H](C)c3c(Cl)ccc(F)c3Cl)c(N)ncc12` [Example 191, 6-Amino-7-[(R)-1-(2,6-dichloro-3-fluorophenyl)ethoxy]furo[3,2-c]pyridine-3-carboxylic acid (3-methoxypropyl)amide]: the IC50 on RON (human) and at MET (human) was 500 to 5000 nM throughout.

As to `C[C@@H]1CN(C(=O)c2ccc(-c3coc4c(O[C@H](C)c5c(Cl)ccc(F)c5Cl)c(N)ncc34)cc2)C[C@H](C)O1` [Example 297, (4-{6-Amino-7-[(R)-1-(2,6-dichloro-3-fluorophenyl)ethoxy]-furo[3,2-c]pyridin-3-yl}phenyl)-(2,6-cis-dimethylmorpholin-4-yl)methanone], the IC50 on RON (human) and on MET (human) was 500 to 5000 nM throughout.

As for `C[C@@H](Oc1c(N)ncc2c(C3=CCN(S(C)(=O)=O)CC3)coc12)c1c(Cl)ccc(F)c1Cl` [Example 46, 7-[(R)-1-(2,6-Dichloro-3-fluorophenyl)-ethoxy]-3-(1-methanesulfonyl-1,2,3,6-tetrahydropyridin-4-yl)-furo[3,2-c]pyridin-6-ylamine], the results for the IC50 at RON (human) and at MET (human) were 500 to 5000 nM and less than 500 nM, respectively.

With `CC(Oc1c(N)ncc2c(-c3cnn(C4CCNCC4)c3)coc12)c1c(Cl)c(F)cc(OCCCN(C)C)c1Cl` (stereo not shown) [Example 156, 7-(1-{2,6-Dichloro-3-[3-(dimethylamino)propoxy]-5-fluorophenyl}ethoxy)-3-[1-(piperidin-4-yl)-1H-pyrazol-4-yl]furo[3,2-c]pyridin-6-amine], the IC50 at RON (human) and at MET (human) was less than 500 nM throughout.

In the case of `CCS(=O)(=O)Nc1cccc(-c2coc3c(O[C@H](C)c4c(Cl)ccc(F)c4Cl)c(N)ncc23)c1` [Example 245, Ethanesulfonic acid (3-{6-amino-7-[(R)-1-(2,6-dichloro-3-fluorophenyl)ethoxy]-furo[3,2-c]pyridin-3-yl}phenyl)amide], the IC50 on RON (human) and on MET (human) was 500 to 5000 nM in each case.

With `C[C@@H](Oc1c(N)ncc2ccoc12)c1nnc2ccc(-c3cnn(C)c3)nn12` [Example 470, 7-{(1R)-1-[6-(1-methyl-1H-pyrazol-4-yl) [1,2,4]triazolo[4,3-b]pyridazin-3-yl]ethoxy}furo[3,2-c]pyridin-6-amine], the IC50 was more than 20000 nM on RON (human) and 500 to 5000 nM at MET (human).

Turning to `CC(Oc1c(N)ncc2c(-c3cnn(C4CCNCC4)c3)coc12)c1cccnc1` (stereo not shown) [Example 398, 3-(1-Piperidin-4-yl-1H-pyrazol-4-yl)-7-(1-pyridin-3-ylethoxy)furo[3,2-c]pyridin-6-ylamine], the IC50 at RON (human) and at MET (human) was 500 to 5000 nM each time.

Regarding `C[C@@H](Oc1c(N)ncc2c(-c3ccc(CN(C)C)s3)coc12)c1c(Cl)ccc(F)c1Cl` [Example 214, 7-[(R)-1-(2,6-Dichloro-3-fluorophenyl)ethoxy]-3-(5-dimethyl-aminomethylthiophen-2-yl)-furo[3,2-c]pyridin-6-ylamine], the IC50 at RON (human) and on MET (human) was less than 500 nM throughout.

`C[C@@H](Oc1c(N)ncc2c(-c3cnn(C4CCN(S(C)(=O)=O)CC4)c3)coc12)c1c(Cl)ccc(F)c1Cl` [Example 275, 7-[(1R)-1-(2,6-Dichloro-3-fluorophenyl)ethoxy]-3-{1-[1-(methyl-sulfonyl)piperidin-4-yl]-1H-pyrazol-4-yl}furo[3,2-c]pyridin-6-amine]: the IC50 at RON (human) and on MET (human) was 500 to 5000 nM throughout.

On to `C[C@@H](Oc1c(N)ncc2c(-c3cnn(C4CCNCC4)c3)c(C#CCN)oc12)c1c(Cl)ccc(F)c1Cl` [Example 173, 2-(3-Aminoprop-1-ynyl)-7-[(R)-1-(2,6-dichloro-3-fluorophenyl)ethoxy]-3-(1-piperidin-4-yl-1H-pyrazol-4-yl)-furo[3,2-c]pyridin-6-ylamine], for which the IC50 on RON (human) and on MET (human) was less than 500 nM each time.

For the compound `C#CCC(Oc1c(N)ncc2c(-c3cnn(C4CCNCC4)c3)coc12)c1c(Cl)cccc1Cl` (stereo not shown) [Example 341, 7-[1-(2,6-Dichlorophenyl)but-3-ynyloxy]-3-(1-piperidin-4-yl-1H-pyrazol-4-yl)-furo[3,2-c]pyridin-6-ylamine], the IC50 on RON (human) and at MET (human) was less than 500 nM each time.

As for `C[C@@H](Oc1c(N)ncc2c(-c3cscn3)coc12)c1c(Cl)ccc(F)c1Cl` [Example 136, 7-[(R)-1-(2,6-Dichloro-3-fluorophenyl)-ethoxy]-3-thiazol-4-ylfuro[3,2-c]pyridin-6-ylamine], the IC50 on RON (human) and on MET (human) was 500 to 5000 nM in each case.

`C[C@@H](Oc1c(N)ncc2c(C3=CCN(/C(N)=N\C#N)CC3)coc12)c1c(Cl)ccc(F)c1Cl` [Example 197, 4-{6-Amino-7-[(R)-1-(2,6-dichloro-3-fluorophenyl)ethoxy]-furo[3,2-c]pyridin-3-yl}-N-cyano-3,6-dihydro-2H-pyridine-1-carboxamidine]: the IC50 on RON (human) and on MET (human) was 500 to 5000 nM throughout.

On to `CC(=O)N1CCN(c2ccc(-c3coc4c(O[C@H](C)c5c(Cl)ccc(F)c5Cl)c(N)ncc34)cn2)CC1` [Example 281, 1-[4-(5-{6-Amino-7-[(R)-1-(2,6-dichloro-3-fluorophenyl)ethoxy]furo[3,2-c]pyridin-3-yl}-pyridin-2-yl)-piperazin-1-yl]ethanone], for which the IC50 at RON (human) was 500 to 5000 nM; at MET (human), less than 500 nM.

Regarding `C[C@@H](Oc1c(N)ncc2c(C3=CCN(C(=O)C(F)(F)F)CC3)coc12)c1c(Cl)ccc(F)c1Cl` [Example 56, 1-(4-{6-Amino-7-[(R)-1-(2,6-dichloro-3-fluorophenyl)-ethoxy]-furo[3,2-c]pyridin-3-yl}-3,6-dihydro-2H-pyridin-1-yl)-2,2,2-trifluoroethanone], the IC50 at RON (human) and on MET (human) was 500 to 5000 nM throughout.

On to `C[C@@H](Oc1c(N)ncc2c(-c3ccc(CN(C)C)cc3)coc12)c1c(Cl)ccc(F)c1Cl` [Example 105, 7-[(R)-1-(2,6-Dichloro-3-fluorophenyl)ethoxy]-3-(4-dimethylaminomethylphenyl)-furo[3,2-c]pyridin-6-ylamine], for which the IC50 at RON (human) is 500 to 5000 nM; on MET (human) it was less than 500 nM.
